Two compounds from PMC7932555, “A diffusible signal factor of the intestine dictates Salmonella invasion through its direct control of the virulence activator HilD” (PLoS Pathogens, 2021) can be followed below.

Numbering of substitutions follows the chain as printed.

What all share (experiment): HilD half-life (degradation) assay by western blot
Holding throughout (type): cell-based
(In general: Immunoblotting shows a protein as a band on a membrane.)

Test [1] addresses T1, HilD (Salmonella typhimurium, UniProt P0CL08, R267A).
T1 construct: hilD with a C-terminal 3XFLAG tag was cloned into pWSK29 under control of the tetRA promoter; expressed in transfected cells; host or cells: Salmonella Typhimurium strain carrying pWSK29-PtetRA-hilD-3XFLAG (background with chromosomal hilD, hilC and rtsA null)
T1 sequence (P0CL08 1-309 R267A): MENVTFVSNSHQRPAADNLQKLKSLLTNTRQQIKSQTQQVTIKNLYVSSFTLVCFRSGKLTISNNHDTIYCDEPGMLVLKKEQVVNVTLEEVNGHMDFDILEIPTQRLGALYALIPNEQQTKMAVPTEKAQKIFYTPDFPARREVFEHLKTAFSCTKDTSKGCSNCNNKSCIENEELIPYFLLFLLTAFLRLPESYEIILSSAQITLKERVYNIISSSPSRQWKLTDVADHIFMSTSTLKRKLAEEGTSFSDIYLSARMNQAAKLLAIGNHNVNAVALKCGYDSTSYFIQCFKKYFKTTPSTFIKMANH
Conditions: HilD R267A-3XFLAG; 20 μM fatty acid. The procedure:
(§1) The HilD half-life was assessed as previously described. Salmonella strains having plasmids with tetracycline-inducible hilD or its mutated sequence with a C-terminal 3XFLAG tag and a sipB::lacZ fusion (for invasion gene expression assessment) were grown overnight and then diluted 1:100 into LB buffered with 100 mM MOPS (pH 6.7) with appropriate antibiotics and fatty acids or control solvents. After 2 hours of growth, aliquots were collected to quantitate sipB::lacZ expression in a β-galactosidase assay. Individual cultures were then equilibrated to an OD600 of 1.0 to ensure equal density at the half-life assay beginning point. New protein production was halted by addition of a cocktail of antibiotics (rifampin, streptomycin and spectinomycin). These cultures were incubated at 37°C and aliquots were collected every 30 minutes for 2 hours. Samples were lysed in 5X sample buffer, boiled, and immunoblotted with an anti-FLAG antibody to monitor HilD.

The target in test [2] is T2, HilD (Salmonella typhimurium, UniProt P0CL08, Q290A).
T2 construct: hilD with a C-terminal 3XFLAG tag was cloned into pWSK29 under control of the tetRA promoter; expressed in transfected cells; host or cells: Salmonella Typhimurium strain carrying pWSK29-PtetRA-hilD-3XFLAG (background with chromosomal hilD, hilC and rtsA null)
T2 sequence (P0CL08 1-309 Q290A): T1 sequence (P0CL08 1-309 R267A) with A267R, Q290A
Conditions: HilD Q290A-3XFLAG; 20 μM fatty acid. The method, then: as §1

The target in test [3] is T3, HilD (Salmonella typhimurium, UniProt P0CL08).
T3 construct: hilD with a C-terminal 3XFLAG tag was cloned into pWSK29 under control of the tetRA promoter; expressed in transfected cells; host or cells: Salmonella Typhimurium strain carrying pWSK29-PtetRA-hilD-3XFLAG (background with chromosomal hilD, hilC and rtsA null)
T3 sequence (P0CL08 1-309): T1 sequence (P0CL08 1-309 R267A) with A267R
The settings on record: wild type HilD-3XFLAG; grown with 20 μM fatty acid for two hours, protein expression halted. The procedure:
as §1

Test [4] addresses T4, HilD (Salmonella typhimurium, UniProt P0CL08, K43A).
T4 construct: hilD with a C-terminal 3XFLAG tag was cloned into pWSK29 under control of the tetRA promoter; expressed in transfected cells; host or cells: Salmonella Typhimurium strain carrying pWSK29-PtetRA-hilD-3XFLAG (background with chromosomal hilD, hilC and rtsA null)
T4 sequence (P0CL08 1-309 K43A): T1 sequence (P0CL08 1-309 R267A) with K43A, A267R
The settings on record: HilD K43A-3XFLAG; 20 μM fatty acid. The method, then:
as §1

Test [5] addresses T5, HilD (Salmonella typhimurium, UniProt P0CL08, K294A).
T5 construct: hilD with a C-terminal 3XFLAG tag was cloned into pWSK29 under control of the tetRA promoter; expressed in transfected cells; host or cells: Salmonella Typhimurium strain carrying pWSK29-PtetRA-hilD-3XFLAG (background with chromosomal hilD, hilC and rtsA null)
T5 sequence (P0CL08 1-309 K294A): T1 sequence (P0CL08 1-309 R267A) with A267R, K294A
The settings on record: HilD K294A-3XFLAG; 20 μM fatty acid. The method, then: as §1

In the case of `CCCCCCCCCCCCC/C=C\C(=O)O` [c2-HDA, cis-2-hexadecenoic acid], the HilD degradation result is recorded as “protected from degradation” on HilD [1]; “degraded as rapidly as wild type HilD” at HilD [2]; “Rapid degradation” on HilD [3]; “degraded as rapidly as wild type HilD” at HilD [4]; “protected from degradation” at HilD [5].

`CCCCCCCCCCCCC/C=C/C(=O)O` [t2-HDA, trans-2-hexadecenoic acid]: the HilD degradation entry at HilD [1] is listed as “escaped degradation”; at HilD [2], “escaped degradation”; at HilD [3] it was “degraded”; at HilD [4], “escaped degradation”; on HilD [5], “rapidly degraded”.
